Experimental data taken from patent US20040067483A1, “Compositions, methods and kits for identying protein-protein interaction disrupting agents” (priority 2003, published 2004).

Biological target: T1, interaction between TGFR (RI) and FKPB12 (Homo sapiens, UniProt P62942)
T1 construct: expressed in transfected cells; host or cells: 293A cells
Experiment: Mammalian reverse two-hybrid system, GFP reporter, stable cell line (pCMV-tetOP-AD-RI-IRES-BD-FKBP12)
Type: cell-based
Settings: 293A cells; 1 μg/ml Dox, 48 hrs; FK506 100 nM, AG1478 2.5 μM; FIG. 2
Protocol: Green Fluorescence Protein (GFP). To directly assay the expression of GFP, cells were cultured in 96 or 384 well low fluorescence assay plates with 100 or 50 μl of DMEM medium. Dox and agents were added at concentrations described below. Following 48-hrs of treatment, the medium in each well was replaced with PBS. The intensity of GFP was directly measured at 485 mn excitation and 525 nm emission with a fluorescence multi-well plate reader (CytoFluor II, PerSeptive Biosystems or Wallac Victor V Stacker, Perkin Elmer).
The mammalian reverse two-hybrid system of the present invention was tested with this protein-protein interaction pair to evaluate if the effect of FK506 on disrupting the interaction can be detected. To achieve this, the cytoplasmic domain of the TGFR (RI) was fused with the transcriptional activation domain (AD) of VP16 and FKBP12 was fused with the Gal4 DNA binding domain (BD).
A stable cell line harboring the construct TetR-KRAB, GFP reporter construct, and the construct pCMV-tetOP-AD-RI-IRES-BD-FKBP12 was selected to evaluate the effect of drug molecule FK506 on the interaction between TGFR (RI) and FKPB12. The intensity of GFP expression was monitored following 48 hrs of treatment of the cells with the inducer Dox and the agent FK506.
Expression of the GFP reporter gene was evaluated following the treatment. […]

T1 sequence (P62942 whole entry): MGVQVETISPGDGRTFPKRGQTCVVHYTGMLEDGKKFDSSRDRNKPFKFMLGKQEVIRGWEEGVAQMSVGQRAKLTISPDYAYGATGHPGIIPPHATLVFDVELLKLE

COc1cc2ncnc(Nc3cccc(Cl)c3)c2cc1OC [AG1478]
Dox induced GFP expression (GFP reporter gene): no effect
